# Reference: US9011956B2, “Natural high-potency sweetener compositions with improved temporal profile and/or flavor profile, methods for their formulation, and uses” (The Coca-Cola Company, priority 2005, dated 2015)
# How the values were obtained:
# [1] = Sweetness linger sensory evaluation by expert panel (protocol of Example A); format: in vivo, human; design: key: 0=no sweetness linger; 1=very slight sweetness linger; 2=slight sweetness linger; 3=moderate sweetness linger; 4=moderately high sweetness linger; 5=high sweetness linger
# Experimental: In a particular embodiment, a panel of assessors is used to measure the reduction of sweetness linger. Briefly described, a panel of assessors (generally 8 to 12 individuals) is trained to evaluate sweetness perception and measure sweetness at several time points from when the sample is initially taken into the mouth until 3 minutes after it has been expectorated. […] A decrease in score for a time point measured after the sample has cleared the mouth indicates there has been a reduction in sweetness perception.
# Generally, the method of measuring sweetness comprises taking a 10 mL sample into the mouth, holding the sample in the mouth for 5 seconds and gently swirling the sample in the mouth, rating the sweetness intensity perceived at 5 seconds, expectorating the sample (without swallowing following expectorating the sample), rinsing with one mouthful of water (e.g., vigorously moving water in mouth as if with mouth wash) and expectorating the rinse water, rating the sweetness intensity perceived immediately upon expectorating the rinse water, waiting 45 seconds and, while waiting those 45 seconds, identifying the time of maximum perceived sweetness intensity and rating the sweetness intensity at that time (moving the mouth normally and swallowing as needed), rating the sweetness intensity after another 10 seconds, rating the sweetness intensity after another 60 seconds (cumulative 120 seconds after rinse), and rating the sweetness intensity after still another 60 seconds (cumulative 180 seconds after rinse). Between samples take a 5 minute break, rinsing well with water to clear the mouth.
# (§1) An exemplary method of sensory evaluation is provided in the following protocol, similar to that described hereinabove. In this test protocol, none of the samples were swallowed. All samples were expectorated and the mouth was rinsed with water after the tasting. In step 1, the 10% sucrose control sample was tasted by distributing ca. 10 mL of sample quickly throughout the oral cavity, wherein the maximal “Sweetness Intensity” was measured. This intensity is defined as a 10 on a 0-15 scale where 0 is defined as no perceptible sweetness and 15, the sweetness of 15% sucrose. Immediately upon sensing maximal sweetness, the sample was expectorated, the mouth was rinsed with water and the rate of sweetness decay (“Sweetness Linger”) was measured, where attention was focused on the sweetness 3-4 min after the water rinse. The sweetness linger was rated by a panel of experts in the sensory evaluation of foods and beverages using the following scale: 0=no sweetness linger, 1=very slight sweetness linger, 2=slight sweetness linger, 3=moderate sweetness linger, 4=moderately high sweetness linger, 5=high sweetness linger. After sample tasting was complete, a salty oyster cracker was chewed followed by a water rinse, and at least 5 minutes followed before tasting the next sample.
# The “Sweetness Linger” rating for sucrose observed by this protocol was defined as 0. Experimental samples were tasted by the same protocol, always allowing sufficient time between samples to ensure re-equilibration of the sensory system. Re-tasting of control samples during the course of the experiment was allowed and encouraged.
# The comparison taste test was performed between two controls and addition of sweet taste improving additive on the onset and/or sweetness linger.
# Where there are ranges provided in the examples, a number of beverages comprising the NHPS, such as rebaudioside-A (REBA), were made 5-7 levels from the top to the bottom range, using a 1:1 dilution of the corresponding sweet taste improving compositions. The sweetness linger rating reported was the most sugar-like in sweetness linger (the lowest numerical value) attained of all the samples (i.e., the shortest sweetness linger). The tasting protocol and sensory scores described in the exemplary protocol of Example A were used in the Examples of Set B. […]
# [2] = Sweetness level as sucrose equivalent; format: in vivo, human
# Experimental: as §1
# [3] = format: physicochemical
# Experimental: A solution of rebaudioside A (>97% pure by HPLC) was prepared in double distilled water (12.5 gm in 50 mL, 25% concentration) by stirring the mixture at 40° C. for 5 minutes. An amorphous form of rebaudioside A was formed by immediately using the clear solution for spray drying with the Lab-Plant spray drier SD-04 instrument (Lab-Plant Ltd., West Yorkshire, U.K.). The solution was fed through the feed pump into the nozzle atomizer which atomized it into a spray of droplets with the help of a constant flow of nitrogen/air. […] This dry powder (11-12 g, H2O 6.74%) was discharged continuously from the drying chamber and was collected in a bottle.
molecule,measurement,setting,value
"OC[C@H]1O[C@@](CO)(O[C@H]2O[C@H](CO)[C@@H](O)[C@H](O)[C@H]2O)[C@@H](O)[C@@H]1O [sugar, sucrose]",sweetness linger rating,[1]; control: 8 g of sugar in 100 ml of citrate buffer,0
same,sweetness linger rating,[1]; control: 10 g in 100 ml of carbon treated water,0
same,sweetness linger rating,"[1]; control: 10 g of sugar in 100 ml carbon treated water, phosphoric acid to pH 2.4-2.5",0
mono-ammonium glycyrrhizic acid salt hydrate,sweetness linger,[1]; control: 375 mg in one liter of carbon-treated water,5
same,sweetness level,[2]; 375 mg in one liter of carbon-treated water,4 % sucrose equivalent
rebaudioside A,sweetness linger rating,[1]; control: 400 ppm REBA in citric acid/potassium citrate composition equivalent to diet lemon-lime beverage,5
same,sweetness linger rating,"[1]; control: 500 ppm REBA in carbon-treated water, phosphoric acid to pH 2.4-2.5",5
same,sucrose equivalent of sweetness,[2]; 180 ppm REBA,5 % sucrose
same,sucrose equivalent of sweetness,[2]; 400 ppm REBA in citric acid/potassium citrate composition,8 g sucrose
rebaudioside A [Form 4],solubility in water at room temperature,[3],> 35.0%
